Publication PMC4749533, “Scintillation proximity assay (SPA) as a new approach to determine a ligand’s kinetic profile. A case in point for the adenosine A1 receptor” (Purinergic Signalling, 2015)

Experiments:
Format in all cases: binding
[1] = molecular target: T1, human adenosine A1 receptor (hA1R) (Homo sapiens, UniProt P30542); experiment: Competition association with [3H]-DPCPX, SPA technology; conditions: 28 °C, 1 mM GTP present for LUF5834, CCPA, NECA; for SPA RT: 1/k off
T1 construct: Steve Hill (University of Nottingham, UK); host or cells: CHO cells stably expressing hA1R; membrane preparation
T1 sequence (P30542 1-326): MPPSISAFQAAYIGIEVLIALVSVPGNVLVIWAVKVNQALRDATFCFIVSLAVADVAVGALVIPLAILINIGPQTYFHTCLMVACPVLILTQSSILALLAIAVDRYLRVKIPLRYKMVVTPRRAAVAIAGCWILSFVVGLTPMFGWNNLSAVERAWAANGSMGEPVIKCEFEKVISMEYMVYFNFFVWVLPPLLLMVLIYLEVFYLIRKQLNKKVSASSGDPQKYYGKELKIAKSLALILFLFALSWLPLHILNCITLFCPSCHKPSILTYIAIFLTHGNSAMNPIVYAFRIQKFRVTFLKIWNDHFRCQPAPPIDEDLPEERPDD
Experimental: (§1) The binding kinetics of unlabeled ligands was quantified using the competition association assay based on the theoretical framework by Motulsky and Mahan.
The membrane-bead mixture was prepared as described under “Radioligand displacement experiments.” Once the membrane-bead mixture was added to the wells of an Isoplate-96 Microplate, measurements of radioligand bound to the receptor were started immediately and continued every 30 s for 2 h, using the 2450 MicroBeta^2 Plate Counter.

[2] = molecular target: T1, human adenosine A1 receptor (hA1R); experiment: Competition association with [3H]-DPCPX, filtration assay; conditions: 28 °C, 1 mM GTP present for LUF5834, CCPA, NECA; for Filtration assay RT: 1/k off
Experimental: as §1
The competition association assay was initiated by adding membrane aliquots (5 μg per well) at different time points for a total of 2 h in the absence or presence of competing ligand.

[3] = molecular target: T1, human adenosine A1 receptor (hA1R); experiment: Radioligand displacement of [3H]-DPCPX, filtration assay; conditions: CHO-hA1R membranes, one-state model
Experimental: (§2) Non-specific binding (NSB) was determined in the presence of 100 μM CPA. Each condition was measured in duplicate, and at least three individual experiments were performed.
Membrane aliquots containing 5 μg protein were incubated together with the radioligand and competing ligands in a total volume of 100 μL assay buffer in a 96-well plate. After 1 h incubation at room temperature, the incubation was terminated by rapid vacuum filtration to separate the bound and free radioligand through 96-well GF/B filter plates using a PerkinElmer Filtermate-harvester (Perkin Elmer, Groningen, the Netherlands). Filters were subsequently washed three times with ice-cold wash buffer (50 mM Tris-HCl [pH 7.4], supplemented with 5 mM MgCl2). After 30 min of dehydration of the filter plate at 50 °C, the filter-bound radioactivity was determined by scintillation spectrometry using the 2450 MicroBeta^2 Plate Counter. The binding values were recorded in both counts per minute (CPM) and disintegrations per minute (DPM).

[4] = molecular target: T1, human adenosine A1 receptor (hA1R); experiment: Radioligand displacement of [3H]-DPCPX, SPA technology; conditions: CHO-hA1R membranes, one-state model
Experimental: as §2
A mixture of 5 μg protein membrane and 1 mg SPA bead was pre-coupled in a shaker (Vibrax VXR, IKA) in a volume of 50 μL of assay buffer at room temperature for 30 min. Then, together with the radioligand and competing ligands, the membrane-bead mixture was dispatched in an Isoplate-96 Microplate (Perkin Elmer, Groningen, the Netherlands), in a final reaction volume of 100 μL. The plate was incubated for 1 h inside the counting chamber of a 2450 MicroBeta^2 Plate Counter (Perkin Elmer, Groningen, the Netherlands) at the ambient temperature of 28 °C. The binding values were recorded in corrected counts per minute (CCPM).

SMILES	SPA RT [1] [min]	Filtration assay RT [2] [min]	Ki [3] [nM]	Ki [4] [nM]	SPA k off (k4) ([1]; […] [3H]-DPCPX) [s⁻¹]	SPA k on (k3) ([1]; […] [3H]-DPCPX) [M⁻¹ s⁻¹]	Kd ([1]; k off/k on, read-out: SPA Kinetic K D) [nM]	Filtration assay k off (k4) ([2]; […] [3H]-DPCPX) [s⁻¹]	Filtration assay k on (k3) ([2]; […] [3H]-DPCPX) [M⁻¹ s⁻¹]	Kd ([2]; k off/k on, read-out: Filtration assay Kinetic K D) [nM]
OC[C@H]1O[C@@H](n2cnc3c(NC4CCCC4)nc(Cl)nc32)[C@H](O)[C@@H]1O [CCPA, 2-chloro-N^6-cyclopentyladenosine]	1.4 ± 0.1	0.68 ± 0.01	–	–	–	–	–	–	–	–
CCCn1c(=O)c2[nH]c(C3CCCC3)nc2n(CCC)c1=O [DPCPX, 1,3-Dipropyl-8-cyclopentyl-xanthine]	2.0 ± 0.1	3.7 ± 0.4	–	–	–	–	–	–	–	–
CCCn1c(=O)c2[nH]c(C3CCCC3)nc2n(CCCOC(=O)c2ccc(S(=O)(=O)F)cc2)c1=O [FSCPX, 8-cyclopentyl-3-N-[3-((3-(4-fluorosulphonyl)benzoyl)-oxy)-propyl]-1-N-propyl-xanthine]	156 ± 31	167 ± 56	–	–	–	–	–	–	–	–
N#Cc1c(N)nc(SCc2ncc[nH]2)c(C#N)c1-c1ccc(O)cc1 [LUF5834]	2.0 ± 0.1	4.4 ± 0.5	4.3 ± 0.6	6.2 ± 0.5	0.00833 ± 0.00083	2.17e+06 ± 830000	3.9 ± 1.5	0.00383 ± 0.0005	1.03e+06 ± 100000	3.7 ± 0.5
